The test system of data set [1] is forearms of a human volunteer. Briefly: Further human vasoconstriction testing, Method 1. It counts as in vivo. As to the method:
The mixtures, in 50 μL amounts, were applied to circular patches (8 mm diameter). After evaporation of ethanol, the patches were applied to the forearms of a human volunteer, and covered with a water impervious film for 3 hr. The intensity of vasoconstriction (scale 0-4) was judged at various time intervals after removal of the patches. The grading scale was as follows: 0, normal skin; 1, slight pallor of indistinct outline; 2, pallor with at least two corners outlined; 3, even pallor with a clear outline of the application sites; 4, very intense pallor. The skin tests (2-4 tests on each compound) were performed on the same person.

In data set [2] the target is T1, rat lung glucocorticoid receptor (Rattus norvegicus, UniProt P06536).
T1 construct: Immediately after resection of the lungs, the tissue was frozen in ice; The cytosol was prepared; from tissue; host or cells: lung cytosol of adrenalectomized male Sprague-Dawley rats
T1 sequence (P06536 1-795): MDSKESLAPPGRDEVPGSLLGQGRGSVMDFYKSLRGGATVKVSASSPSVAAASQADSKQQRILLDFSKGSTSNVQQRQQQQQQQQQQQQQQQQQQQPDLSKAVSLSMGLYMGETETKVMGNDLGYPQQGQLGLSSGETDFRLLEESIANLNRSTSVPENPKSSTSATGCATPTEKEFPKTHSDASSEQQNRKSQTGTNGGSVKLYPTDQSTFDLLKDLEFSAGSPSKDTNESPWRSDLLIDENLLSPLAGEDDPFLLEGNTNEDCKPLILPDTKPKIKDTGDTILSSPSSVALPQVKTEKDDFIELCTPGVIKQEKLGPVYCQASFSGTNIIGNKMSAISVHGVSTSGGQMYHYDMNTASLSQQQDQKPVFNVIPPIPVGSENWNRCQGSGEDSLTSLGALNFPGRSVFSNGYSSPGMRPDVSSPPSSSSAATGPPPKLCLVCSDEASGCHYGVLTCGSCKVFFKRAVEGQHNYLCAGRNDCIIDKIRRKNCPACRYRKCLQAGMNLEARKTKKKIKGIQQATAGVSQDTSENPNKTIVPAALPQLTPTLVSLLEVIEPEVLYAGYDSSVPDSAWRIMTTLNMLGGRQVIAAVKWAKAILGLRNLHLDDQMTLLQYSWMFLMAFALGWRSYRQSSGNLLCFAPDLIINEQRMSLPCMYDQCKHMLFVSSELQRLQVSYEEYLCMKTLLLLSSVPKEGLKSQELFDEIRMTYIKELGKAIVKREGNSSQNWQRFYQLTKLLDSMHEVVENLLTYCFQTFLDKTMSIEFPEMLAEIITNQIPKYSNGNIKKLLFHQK
Briefly: Receptor binding studies ([3H]triamcinolone acetonide displacement). Conditions: for RBA: further receptor binding studies (Table X), dexamethasone = 100, * mean ± SE of 3-5 results; for Relative binding affinity (RBA): with respect to dexamethasone (RBA = 100). As to the method: Male Sprague-Dawley rats, each weighing 150 to 200 g, were used 6 days after adrenalectomy. Rats were sacrificed by decapitation. Immediately after resection of the lungs, the tissue was frozen in ice. […] Portions (5 ml) of the cytosol were frozen in liquid nitrogen and stored at -80° C.
The cytosol was thawed in a water bath and diluted with 1 part of incubation buffer containing a 15 mM concentration of diisopropyl fluorophosphate. […] After a 2 hour incubation period at room temperature (24° C.), the unbound steroid was removed by addition of a 2% suspension of activated charcoal in incubation buffer (400 μL). The mixture was incubated for 5 minutes at room temperature and then was centrifuged at about 10,000 g for 3 minutes in the microcentrifuge. The radioactivity (cpm) in the supernatant (400 μL) was determined by liquid scintillation counting.
The data is fitted to the following logistic function:
B=T-T * C^N /(C^N +IC50^N)+NS,
where B=CPM in the presence of competitor, T=CPM in the absence of competitor, C=competitor concentration, N=Hill slope factor, and NS=cpm under non-specific binding conditions.
For the representative compound of the invention B, receptor binding affinity was investigated with and without Δ^1 -cortienic acid in the incubation solution to study the effect of Δ^1 -cortienic acid on the receptor binding.
Further studies to evaluate the relative receptor binding affinities of compounds of the invention, other compounds of formula (VII) hereinabove and well-known anti-inflammatory steroids were undertaken, using the methods described in the RECEPTOR BINDING STUDIES set forth above. […] For comparison purposes, the following compounds having formula (VII) above were also tested: […]

Data set [3] can be described thus: in vitro. It counts as in vitro ADME. Conditions: rat, lung cytosol. On the procedure:
To determine that the compounds of the invention can be stable during the incubation period, the test compounds A, B, C, and D were investigated for their stabilities at the incubation conditions, which are room temperature and 2 hours, for receptor binding studies. The frozen cytosol which was made for the receptor binding study was thawed in a water bath and diluted with 1 part of incubation buffer (10 mM Tris/HCl, 10 mM sodium molybdate, and 2 mM 1,4-dithiothreitol) containing a 15 mM concentration of enzyme inhibitor, diisopropyl fluorophosphate. Portions (560 μL) of the diluted cytosol were added to centrifuge tubes containing 80 μL portions of blank incubation buffer instead of volume of tracer ([^3 H]triamcinolone acetonide) which would be used in the receptor binding study (RBS), 80 μL of solution of a Δ^1 -cortienic acid (0.1 mM) in buffer (the final concentration of Δ^1 -cortienic acid in the incubation medium was […]), and 80 μL of 100,000 nM of concentrations of test compounds in ethanol to give a final concentration of 10,000 nM. This mixture was kept at room temperature for 2 hours. Samples of 0.1 mL were taken at appropriate time intervals (0, 0.5, 1, 1.5, 2 hours) and were mixed with 0.2 mL of acetonitrile containing 5% DMSO. Each mixture was centrifuged and the supernatant were injected in the HPLC.
Male Sprague-Dawley rats, each weighing 150 to 200 g, were used 6 days after adrenalectomy. Rats were sacrificed by decapitation. Immediately after resection of the lungs, the tissue was frozen in ice. The cytosol was prepared using a slight modification of a previously described method (Dahlberg, 1984); After addition of 6 volumes of ice-cold incubation buffer (10 mM Tris/HCl, 10 mM sodium molybdate, and 2 mM 1,4-dithiothreitol), the tissue was homogenized with the Virtis 45 homogenizer at full speed, for 4 periods of 10 seconds with a 10-second cooling period between each step. The homogenate was centrifuged at 35,000 g for 1 hour at 4° C. in a Beckman ultracentrifuge L8-70M equipped with a T170 rotor. Portions (5 ml) of the cytosol were frozen in liquid nitrogen and stored at -80° C.

Data set [4] has as its system forearm of a human volunteer. Briefly: Human vasoconstriction test. The settings on record: 10 mM. It counts as in vivo. As to the method:
Test compounds (10 mM) were dissolved in ethanol/propylene glycol (9/1) solution, and 50 μL of the mixtures were applied to circular patches, 8 mm in diameter. After ethanol evaporation, the patches were applied to the forearm of a human volunteer, and covered with a water impervious film for 3 hours. The intensity of vasoconstriction was judged 1, 8, 17 and 24 hours after the patches were removed.
The grading scale for the vasoconstriction activity was as follows: 0, normal skin; 1, slight pallor of indistinct outline; 2, pallor with at least two corners outlined; 3, even pallor with a clear outline of the application sites; 4, very intense pallor.

The mark [5] stands for this setting: 24 Hours, 1 hour re-occlusion at 20-21 hours, 0.01 mM.
Setting [6] is: 24 Hours, 1 hour re-occlusion at 20-21 hours, 0.05 mM.
Setting [7] is: 24 Hours, 1 hour re-occlusion at 20-21 hours, 0.1 mM.
Where [8] appears, read: 24 Hours, 1 hour re-occlusion at 20-21 hours, 0.5 mM.
Setting [9] is: rat lung cytosol, 10 nM [3H]triamcinolone acetonide, with Δ1-cortienic acid, 2 h, 24° C., read-out: IC50.

Read-outs that look alike come from different tables or passages of the source.

We go through nine molecules from patent publication US5981517A, “Androstene derivatives” (priority 1997, dated 1999).

Consider `CCOC(=O)[C@@]1(OC(=O)CC)CC[C@H]2[C@@H]3CCC4=CC(=O)C=C[C@]4(C)[C@H]3[C@@H](O)C[C@@]21C` [Compound P, reference compound], for which the Vasoconstriction activity in data set [1] (3 Hours, 0.01 mM) is listed as 0; in data set [1] (3 Hours, 0.05 mM), 0; in data set [1] (3 Hours, 0.1 mM), 0; in data set [1] (3 Hours, 0.5 mM), 1; in data set [1] (3 Hours, 1 mM) it was 2; in data set [1] (3 Hours, 5 mM), 3. For the same molecule, the Vasoconstriction activity in data set [1] (20 Hours, 0.01 mM) stood at 0; in data set [1] (20 Hours, 0.05 mM) it was 0; in data set [1] (20 Hours, 0.1 mM) it was 0; in data set [1] (20 Hours, 0.5 mM) it was 0; in data set [1] (20 Hours, 1 mM), 1; in data set [1] (20 Hours, 5 mM), 1. In addition, the Vasoconstriction activity in data set [1] (setting [5]) was 0; in data set [1] (setting [6]), 0; in data set [1] (setting [7]) it was 1; in data set [1] (setting [8]), 2. For the same molecule, the RBA in data set [2] stood at 38. This molecule displayed a share remaining at 2 h in data set [3] greater than 90%.

Turning to `CCOC(=O)[C@@]1(OC(=O)C(C)Cl)CC[C@H]2[C@@H]3CCC4=CC(=O)C=C[C@]4(C)[C@H]3[C@@H](O)C[C@@]21C` (stereo partly drawn) [Q, ethyl 17α-(α-chloro)propionyloxy-11β-hydroxyandrosta-1,4-dien-3-one-17β-carboxylate], the Vasoconstriction activity in data set [1] (3 Hours, 0.01 mM) amounted to 0; in data set [1] (3 Hours, 0.05 mM), 0; in data set [1] (3 Hours, 0.1 mM), 0; in data set [1] (3 Hours, 0.5 mM) it was 1; in data set [1] (3 Hours, 1 mM) it was 1; in data set [1] (3 Hours, 5 mM) it was 3. In addition, the Vasoconstriction activity in data set [1] (20 Hours, 0.01 mM) is 0; in data set [1] (20 Hours, 0.05 mM), 0; in data set [1] (20 Hours, 0.1 mM), 0; in data set [1] (20 Hours, 0.5 mM) it was 1; in data set [1] (20 Hours, 1 mM), 1; in data set [1] (20 Hours, 5 mM), 1. Also, the Vasoconstriction activity in data set [1] (setting [5]) came out at 0; in data set [1] (setting [6]) it was 0; in data set [1] (setting [7]), 1; in data set [1] (setting [8]) it was 2. This molecule also gave an RBA in data set [2] of 88. Moreover, in data set [3], the share remaining at 2 h was greater than 90%.

Take `CC(C)OC(=O)[C@@]1(O)CC[C@H]2[C@@H]3CCC4=CC(=O)C=C[C@]4(C)[C@H]3[C@@H](O)C[C@@]21C` [G]: the IC50 in data set [2] (setting [9]) was greater than 2 µM. In addition, the “Relative binding affinity (RBA)” value in data set [2] (with Δ1-cortienic acid) was less than 1.

Turning to `C[C@@H]1C[C@H]2[C@@H]3CCC4=CC(=O)C=C[C@]4(C)[C@@]3(F)[C@@H](O)C[C@]2(C)[C@@]1(O)C(=O)CO` [Dexamethasone, reference compound], the Vasoconstriction activity turned out to be 1 in data set [1] (3 Hours, 10 mM); 1 in data set [1] (20 Hours, 10 mM); 0 in data set [4] (1 hour after patch removal); 1 in data set [4] (8 hours after patch removal); 1 in data set [4] (17 hours after patch removal); 1 in data set [4] (24 hours after patch removal).

On to `CCOC(=O)[C@@]1(O)CC[C@H]2[C@@H]3CCC4=CC(=O)C=C[C@]4(C)[C@H]3[C@@H](O)C[C@@]21C` [F], for which the IC50 in data set [2] (setting [9]) is greater than 2 µM. For the same molecule, the “Relative binding affinity (RBA)” value in data set [2] (with Δ1-cortienic acid) is listed as less than 1.

As to `CC1(C)O[C@@H]2C[C@H]3[C@@H]4CCC5=CC(=O)C=C[C@]5(C)[C@@]4(F)[C@@H](O)C[C@]3(C)[C@]2(C(=O)CO)O1` [Triamcinolone acetonide, reference compound], in data set [2], the IC50 is 0.013 µM and the RBA is 630. Also, in data set [2] (with Δ1-cortienic acid), the “Relative binding affinity (RBA)” value is 628.

In the case of `C[C@]12C=CC(=O)C=C1CC[C@@H]1[C@@H]2[C@@H](O)C[C@@]2(C)[C@H]1CC[C@]2(OC(=O)C(Cl)Cl)C(=O)O` [H, 17α-dichloroacetoxy-11β-hydroxyandrosta-1,4-dien-3-one-17β-carboxylic acid], the IC50 in data set [2] (setting [9]) was greater than 2 µM. Besides, the “Relative binding affinity (RBA)” value in data set [2] (with Δ1-cortienic acid) is recorded as less than 2.

`COC(=O)[C@@]1(O)CC[C@H]2[C@@H]3CCC4=CC(=O)C=C[C@]4(C)[C@H]3[C@@H](O)C[C@@]21C` [E] had an IC50 in data set [2] greater than 2 µM. Further, in data set [2] (with Δ1-cortienic acid), the “Relative binding affinity (RBA)” value is listed as less than 1.

Regarding `CC(=O)[C@@]1(O)CC[C@H]2[C@@H]3C[C@H](C)C4=CC(=O)C=C[C@]4(C)[C@@]3(F)[C@@H](O)C[C@@]21C` [Fluorometholone, reference compound], the RBA in data set [2] amounted to 136 ± 5.
